Assay results: US20120196830A1, “KITS AND IMPROVED COMPOSITIONS FOR TREATING LOWER URINARY TRACT DISORDERS” (priority 2005, published 2012)
Like-named read-outs stand apart in the source and are kept apart here.

Experiments:
[1] = Uncharged fraction of lidocaine by Henderson-Hasselbalch equation; format: physicochemical
Excerpt: For the acute-acting anesthetic to function properly, it typically needs to be in a pH environment that enables the chemical form of the drug to be neutral thereby allowing the molecule to traverse the membranes and gain access to the neurons underlying the bladder epithelium. To achieve this pH, a buffer must be provided so that the pH is sufficiently near to the isoelectric point of the chosen anesthetic to ensure that a sufficient portion of the acute-acting anesthetic is present in an uncharged state. A sufficient portion can minimally be 20% up to 100% in its uncharged state and those skilled in the art can use the drug's isoelectric point and the Henderson-Hasselbalch equation to calculate the minimal pH of the solution to achieve the 20% minimal uncharged amount. Preferably, the pH of the solution is such that at least about 40% of the acute-acting anesthetic is present in an uncharged state. […]. This buffering can be achieved by the addition of bicarbonate buffer, Tris (Tris(hydroxymethyl)aminomethane) buffer, MOPS buffer (3-(N-morpholino)propanesulfonic acid), HEPES (N-(2-hydroxyethyl)piperazine-N′-(2-ethanesulfonic acid) buffer, ACES (2-[(2-amino-2-oxoethyl)amino]ethanoesulfonic acid) buffer, ADA (N-(2-acetamido)-2-iminodiacetic acid) buffer, AMPSO (3-[(1,1-dimethyl-2-hydroxyethyl)amino]-2-propanesulfonic acid) buffer, BES (N,N-bis(2-hydroxyethyl)-2-aminoethanesulfonic acid buffer, Bicine (N,N-bis(2-hydroxyethylglycine) buffer, Bis-Tris (bis-(2-hydroxyethyl)imino-tris(hydroxymethyl)methane buffer, CAPS (3-(cyclohexylamino)-1-propanesulfonic acid) buffer, CAPSO (3-(cyclohexylamino)-2-hydroxy-1-propanesulfonic acid) buffer, CHES (2-(N-cyclohexylamino)ethanesulfonic acid) buffer, DIPSO (3-[N,N-bis(2-hydroxyethyl)amino]-2-hydroxy-propanesulfonic acid) buffer, HEPPS(N-(2-hydroxyethylpiperazine)-N′-(3-propanesulfonic acid), buffer, HEPPSO(N-(2-hydroxyethyl)piperazine-N′-(2-hydroxypropanesulfonic acid) buffer, MES (2-(N-morpholino)ethanesulfonic acid) buffer, triethanolamine buffer, imidazole buffer, glycine buffer, ethanolamine buffer, phosphate buffer, MOPSO (3-(N-morpholino)-2-hydroxypropanesulfonic acid) buffer, PIPES (piperazine-N,N′-bis(2-ethanesulfonic acid) buffer, POPSO (piperazine-N,N′-bis(2-hydroxypropaneulfonic acid) buffer; TAPS(N-tris[hydroxymethyl)methyl-3-aminopropanesulfonic acid) buffer, TAPSO (3-[N-tris(hydroxymethyl)methylamino]-2-hydroxy-propanesulfonic acid) buffer, TES (N-tris(hydroxymethyl)methyl-2-aminoethanesulfonic acid) buffer, tricine (N-tris(hydroxymethyl)methylglycine buffer), 2-amino-2-methyl-1,3-propanediol buffer, 2-amino-2-methyl-1-propanol buffer, or another buffer that can buffer the composition to be administered at the appropriate pH value. The buffer to be selected, and the concentration of the buffer to be used, can be chosen by one of ordinary skill in the art to buffer the composition to be administered at a pH value that is close to the isoelectric point of the local anesthetic. […]. For bupivacaine, it is 8.1. For etidocaine, it is 7.7. For flecamide, it is 9.3. Typically, the pH achieved by the use of the buffer is between about 7.0 and about 12.0. More typically, the pH achieved by the use of the buffer is between about 7.0 and about 9.5. Typically, when bicarbonate buffer is used, it is sodium bicarbonate buffer; however, other counterions can be used as described above.

IC patients [2] = conditions: intravesical instillations; cited from earlier work
cancer patients = conditions: cited from earlier work
IC patients [3] = conditions: intravesical, interstitial cystitis; cited from earlier work

In the case of `CCN(CC)CC(=O)Nc1c(C)cccc1C` [lidocaine], the lidocaine uncharged ([1]; pH 6.6) is reported as 5%, the lidocaine uncharged ([1]; pH 7.0) is reported as 10% and the lidocaine uncharged ([1]; pH 7.2) is reported as 20%. The lidocaine uncharged ([1]; pH 7.5) was 30%, the lidocaine uncharged ([1]; pH 7.7) was 40% and the lidocaine uncharged ([1]; pH 7.9) was 50%.
In the case of `C[S+](C)[O-]` [DMSO, dimethylsulfoxide], the “IC patients treated with benefit” value (IC patients [2]) is given as roughly 50%.
For `O=S(=O)(O)CCS` [Mesnex, mesna], the “frequency of adverse events (all AEs)” value (cancer patients; IV) is listed as 85% and the “frequency of adverse events (all AEs)” value (cancer patients; oral) is listed as 89%.
For heparin, the “patients treated in whom effective” value (IC patients [3]) is listed as “approximately 50%”.
